Literature values in US20020141964A1, “Composition for arresting the flow of blood and method” (priority 2001, published 2002).

Tested on: blood flowing from an open wound
Details: shown in the earlier U.S. patent of the co-inventors

potassium ferrate
accelerated clotting of blood flowing from an open wound: effectively accomplishes the accelerated clotting of blood
